Data set [1] deals with MCF-7 cells. The experiment in a line: Cell uptake of [^18F]1 in MCF-7 cells after 21 h pretreatment. The settings on record: 1 h uptake. Type of data set: cell-based, human. As to the method: (§1) The ability of [^18F]1 to bind to MDM2 expressing human tumor cells was assessed using two wild-type p53 cell lines, MCF-7 breast adenocarcinoma, and HepG2 hepatocellular carcinoma. These cell lines have significant MDM2 expression levels and have been utilized previously for assessing potential MDM2 inhibitors, including SP-141 [12, 24, 25]. […] Thus, to examine the uptake and specificity of [^18F]1 by MDM2 expressing tumor cell lines, MCF-7 and HepG2 cells were treated with 0, 1, 5, or 10 µM SP-141 for 21 h, and then assessed for [^18F]1 uptake for 1 h.
(§2) Cell uptake studies of [^18F]1 were conducted using MCF-7 and HepG2 cell lines. Briefly, cells plated in 24-well plates (200,000/well) were treated with varying concentrations of SP-141 (1, 5, or 10 µM) or vehicle for 21 h and incubated with a fresh medium containing [^18F]1 (~18.5 kBq in 0.5 mL medium) for 1 h. Next, the incubation medium was removed, cells were rinsed with cold PBS (3 × 0.5 mL) and lysed using Cell Culture Lysis Reagent (0.25 mL, Promega Corporation, Madison, WI, USA) followed by a rinse with PBS (0.125 mL/well). For each well, the supernatant, PBS washes, and the cell lysate were measured for radioactivity in an automated gamma counter (Wallac Wizard™, Perkin Elmer, Waltham, MA, USA). Subsequently, cell lysates were analyzed for protein concentration using the Bradford assay (Bio-Rad, Hercules, CA, USA). Cell uptake for each well was normalized to its protein content and expressed as % uptake/mg protein. Results are presented as mean ± SD for three wells.

Another data set relates to HepG2 cells. The experiment in a line: Cell uptake of [^18F]1 in HepG2 cells after 21 h pretreatment. The settings on record: vehicle-treated HepG2 cells, 1 h uptake. Type of data set: cell-based, human. On the procedure:
as §1
as §2, with “Briefly, cells plated in 24-well plates (200,000/well) were treated with varying concentrations of SP-141 (1, 5, or 10 µM) or vehicle for 21 h and incubated with a fresh medium containing [^18F]1 (~18.5 kBq in 0.5 mL medium) for 1 h.” left out

The test system of data set [2] is MCF-7 cells. The experiment in a line: Saturation binding assay with [^18F]1 on MCF-7 cells. To be noted: 30 min incubation, nonspecific binding from cells pretreated with 1 µM SP-141 for 25 h, read-out: Kd (equilibrium dissociation constant). Set-up: species or system human. On the procedure: Next, saturation binding assays were conducted to evaluate the binding affinity of [^18F]1 on MCF-7 cells. In these experiments, MCF-7 cells seeded in 24-well plates were incubated for 30 min with eight increasing concentrations of [^18F]1 in serial two-fold dilutions (185.5–1.4 nM). Nonspecific binding was assessed in parallel using cells that were pretreated with 1 µM SP-141 for about 25 h to induce MDM2 degradation, thereby depleting MDM2 from the cells. Uptake of [^18F]1 in SP-141-pretreated cells was considered nonspecific and was subtracted from the total binding data for untreated cells at each radiotracer concentration to calculate the equilibrium dissociation constant (Kd) by nonlinear regression analysis in Graphpad Prism®.
For the saturation binding assay with [^18F]1, MCF-7 cells plated in 24-well plates (200,000 cells/well) were treated for 25 h with vehicle (DMSO, <5%; plate #1, for total binding) or SP-141 (1 µM; plate #2, to determine nonspecific binding). […] At each concentration of [^18F]1, nonspecific binding was determined in parallel (plate #2) in cells treated with 1 µM SP-141 to induce MDM2 degradation. Specific binding data were calculated by subtracting nonspecific binding from total binding and fit using the equation “Specific binding with Hill slope” in GraphPad Prism® (GraphPad, v5.01). […]

Data set [3] in a line: Lipophilicity, shake-flask partitioning between PBS (pH 7.4) and n-octanol. Type of data set: physicochemical. To be noted: PBS (pH 7.4) / n-octanol, read-out: log D7.4. On the procedure: The lipophilicity of [^18F]1 was determined by its partitioning between PBS (pH 7.4) and n-octanol by the shake-flask method as previously described.
An aliquot of [^18F]1 (0.37 MBq) was added to a mixture of PBS (pH 7.4) and n-octanol (2 mL each, n = 3) in polypropylene tubes. The mixture was vortexed for one minute, and the organic phase was separated by centrifugation (3000 rpm, 5 min). Next, aliquots of octanol (50 µL) and PBS (500 µL) were collected from each tube into preweighed Eppendorf® tubes and measured for radioactivity in an automated gamma counter (Wallac Wizard™, Perkin Elmer, Waltham, MA, USA). Samples were weighed, and the weights were converted to volume according to solvent density. The partition coefficient value was calculated as the ratio of radioactivity (counts per minute (CPM)/mL) in octanol to that in the aqueous phase.

Several values for one entry are separate records, joined by “and”; a condition that tells them apart may be missing. Equal values may be shown once. Bounds are passed on as bounds.

In general, Kd refers to the concentration at which binding is half-saturated. Turning to `[18F]CCOc1ccc2[nH]c3c(-c4cccc5ccccc45)nccc3c2c1` [[^18F]1], the “[^18F]1 uptake” value is not above 18.5 ± 0.0 %/mg protein in the data set with MCF-7 cells [1] (MCF-7 cells treated with SP-141 (1, 5 or 10 µM) for 21 h); 71.4 %/mg protein and 71.4 ± 0.0 %/mg protein in the data set on MCF-7 cells [1] (vehicle-treated control MCF-7 cells). Also, in the data set with HepG2 cells, the “[^18F]1 uptake, baseline” value was 67.5 %/mg protein and ~ 68 %/mg protein. In the data set on MCF-7 cells [2], the Kd is 78.1 nM. Further, the logD in data set [3] was 2.35 ± 0.19.

The values are drawn from article PMC8070256, “Feasibility of Developing Radiotracers for MDM2: Synthesis and Preliminary Evaluation of an ^18F-Labeled Analogue of the MDM2 Inhibitor SP-141” (Pharmaceuticals, 2021).
